# Measured values: DBAASP
# Experiments:
# Assay in all cases: ≥ marks a high value that may be exact or a test limit, other limits are often not marked, values filed in µg/mL are converted to µM
# Enterococcus faecalis VR = system: Enterococcus faecalis VR
# [1] = system: Bacillus subtilis KCTC 3068
# [2] = system: Staphylococcus epidermidis KCTC 1917
# [3] = system: Salmonella typhimurium KCTC 1926
# Staphylococcus aureus MR = system: Staphylococcus aureus MR
# Enterococcus faecalis = system: Enterococcus faecalis
# [4] = system: Staphylococcus aureus KCTC 1621
# Enterococcus faecium = system: Enterococcus faecium
# Enterococcus faecium VR = system: Enterococcus faecium VR
# [5] = system: Escherichia coli KCTC 1682
# [6] = system: Pseudomonas aeruginosa KCTC 1637
# [7] = system: Candida parapsilosis ATCC 22019
# Candida albicans SC5314 = system: Candida albicans SC5314
# [8] = system: Candida albicans ATCC 90028
# Candida krusei ATCC 6258 = system: Candida krusei ATCC 6258
# [9] = system: Escherichia coli ATCC 25922
# [10] = system: Acinetobacter baumannii ATCC 19606
# [11] = system: Klebsiella pneumoniae ATCC BAA-2146
# Klebsiella pneumoniae = system: Klebsiella pneumoniae
# [12] = system: Klebsiella pneumoniae ATCC 700603
# [13] = system: Cryptococcus neoformans ATCC 208821
# [14] = system: Pseudomonas aeruginosa ATCC 27853
# [15] = system: Bacillus subtilis ATCC 6051
# Acinetobacter baumannii = system: Acinetobacter baumannii
# [16] = system: Staphylococcus aureus ATCC 43300
# [17] = system: Klebsiella pneumoniae ATCC 13883
# Pseudomonas aeruginosa = system: Pseudomonas aeruginosa
MIC (Enterococcus faecalis VR) [µM],MIC [1] [µM],MIC [2] [µM],MIC [3] [µM],MIC (Staphylococcus aureus MR) [µM],MIC (Enterococcus faecalis) [µM],MIC [4] [µM],MIC (Enterococcus faecium) [µM],MIC (Enterococcus faecium VR) [µM],MIC [5] [µM],MIC [6] [µM],MIC [8] [µM],MIC [9] [µM],MIC [10] [µM],MIC [11] [µM],MIC (Klebsiella pneumoniae) [µM],MIC [12] [µM],MIC [13] [µM],MIC [14] [µM],MIC [15] [µM],Structure (SMILES),further results
15,30,30,30,30,30,30,7.5,30,30,30,,,,,,,,,,CC[C@H](C)[C@H](NC(=O)[C@H](CS)NC(=O)[C@H](Cc1cnc[nH]1)NC(=O)[C@H](C)NC(=O)[C@H](C)N)C(=O)N[C@@H](C)C(=O)N[C@@H](CC(C)C)C(=O)N[C@@H](CCCN=C(N)N)C(=O)N[C@@H](CCCCN)C(=O)NCC(=O)N[C@@H](Cc1ccc(O)cc1)C(=O)N[C@@H](CCCCN)C(N)=O [AAHCIALRKGYK],
30,30,30,30,30,30,30,30,30,30,30,,,,,,,,,,CC[C@H](C)[C@H](NC(=O)[C@H](CS)NC(=O)[C@H](CC(N)=O)NC(=O)[C@H](C)NC(=O)[C@H](C)N)C(=O)N[C@H](C(=O)N[C@@H](CC(C)C)C(=O)NCC(=O)N[C@@H](CCCCN)C(=O)N[C@@H](C)C(N)=O)[C@@H](C)O [AANCITLGKA],
30,7.5,7.5,7.5,7.5,30,7.5,3.8,15,30,7.5,,,,,,,,,,CC[C@H](C)[C@H](NC(=O)[C@H](C)N)C(=O)N[C@@H](CCCN=C(N)N)C(=O)N[C@@H](CS)C(=O)N[C@@H](CC(C)C)C(=O)N[C@@H](C)C(=O)N[C@@H](CCCCN)C(=O)N[C@@H](CCCN=C(N)N)C(=O)N[C@@H](CCCN=C(N)N)C(=O)N[C@@H](CCCCN)C(N)=O [AIRCLAKRRK],
,,,,,,,,,,,≥ 34.2,,,,,,,,,CC[C@H](C)[C@H](NC(=O)[C@@H](NC(=O)CN)C(C)C)C(=O)N[C@@H](CCCCN)C(=O)N[C@@H](C)C(=O)N[C@@H](C)C(=O)N[C@@H](CCCCN)C(=O)N[C@@H](CCCCN)C(=O)N[C@H](C(=O)N[C@H](C(=O)N[C@@H](CCCCN)C(=O)N[C@H](C(=O)N[C@@H](CC(C)C)C(=O)N[C@@H](CCCCN)C(=O)N[C@@H](CCCCN)C(=O)N[C@@H](CC(C)C)C(=O)N[C@@H](Cc1ccccc1)C(N)=O)C(C)C)C(C)C)C(C)C [GVIKAAKKVVKVLKKLF],MIC [7]: 8.56 µM; MIC (Candida albicans SC5314): 17.1 µM; MIC (Candida krusei ATCC 6258): 17.1 µM
,,,,,,,,,,,≥ 34.5,,,,,,,,,CC[C@H](C)[C@H](NC(=O)[C@@H](NC(=O)CN)C(C)C)C(=O)N[C@@H](CCCCN)C(=O)N[C@@H](C)C(=O)N[C@@H](C)C(=O)N[C@@H](CCCCN)C(=O)N[C@@H](CCCCN)C(=O)N[C@H](C(=O)N[C@H](C(=O)N[C@@H](CCCCN)C(=O)N[C@H](C(=O)N[C@@H](CC(C)C)C(=O)N[C@@H](CCCCN)C(=O)N[C@@H](CC(N)=O)C(=O)N[C@@H](CC(C)C)C(=O)N[C@@H](Cc1ccccc1)C(N)=O)C(C)C)C(C)C)C(C)C [GVIKAAKKVVKVLKNLF],MIC [7]: 17.2 µM; MIC (Candida albicans SC5314): 17.2 µM; MIC (Candida krusei ATCC 6258): 17.2 µM
,,,,,,,,,,,7.47,3.74,1.87,7.47,> 7.47,7.47,0.467,> 7.47,0.467,CC[C@H](C)[C@H](NC(=O)CNC(=O)[C@H](CCCNC(=N)N)NC(=O)[C@H](Cc1ccc(O)cc1)NC(=O)[C@H](C)NC(=O)[C@@H](NC(=O)[C@H](CCCNC(=N)N)NC(=O)[C@H](Cc1ccccc1)NC(=O)[C@H](C)NC(=O)[C@H](Cc1c[nH]c2ccccc12)NC(=O)[C@@H](N)CCCCN)C(C)C)C(=O)N[C@@H](C)C(=O)N[C@@H](Cc1ccc(O)cc1)C(=O)N[C@@H](CCCNC(=N)N)C(=O)N[C@@H](CCCNC(=N)N)C(=O)N[C@@H](C)C(=O)N[C@@H](CCCNC(=N)N)C(N)=O [KWAFRVAYRGIAYRRAR],MIC (Acinetobacter baumannii): 1.87 µM; MIC [16]: 7.47 µM; MIC [17]: 7.47 µM; MIC (Pseudomonas aeruginosa): > 7.47 µM
,,,,,,,,,,,1.84,0.115,0.0574,0.23,3.68,0.23,0.23,0.23,0.0276,CC[C@H](C)[C@@H]1NC(=O)CNC(=O)[C@H](CCCN=C(N)N)NC(=O)[C@H](Cc2ccc(O)cc2)NC(=O)[C@@H]2CSSC[C@H](NC1=O)C(=O)N[C@@H](C)C(=O)N[C@@H](CCCN=C(N)N)C(=O)N[C@@H](CCCN=C(N)N)C(=O)N[C@H](C(=O)N[C@@H](CCCN=C(N)N)C(=O)O)CSSC[C@H](NC(=O)[C@H](Cc1c[nH]c3ccccc13)NC(=O)[C@@H](N)CCCCN)C(=O)N[C@@H](Cc1ccccc1)C(=O)N[C@@H](CCCN=C(N)N)C(=O)N[C@@H](C(C)C)C(=O)N2 [KWCFRVCYRGICARRCR],MIC (Acinetobacter baumannii): 0.115 µM; MIC [16]: 1.84 µM; MIC [17]: 0.115 µM; MIC (Pseudomonas aeruginosa): 0.919 µM
,,,,,,,,,,,1.74,0.0544,0.0544,0.109,1.74,0.218,0.109,0.109,0.0544,CC[C@H](C)[C@@H]1NC(=O)CNC(=O)[C@H](CCCN=C(N)N)NC(=O)[C@H](Cc2ccc(O)cc2)NC(=O)[C@@H]2CSSC[C@H](NC1=O)C(=O)N[C@@H](Cc1ccc(O)cc1)C(=O)N[C@@H](CCCN=C(N)N)C(=O)N[C@@H](CCCN=C(N)N)C(=O)N[C@H](C(=O)N[C@@H](CCCN=C(N)N)C(=O)O)CSSC[C@H](NC(=O)[C@H](Cc1c[nH]c3ccccc13)NC(=O)[C@@H](N)CCCN=C(N)N)C(=O)N[C@@H](Cc1ccccc1)C(=O)N[C@@H](CCCN=C(N)N)C(=O)N[C@@H](C(C)C)C(=O)N2 [RWCFRVCYRGICYRRCR],MIC (Acinetobacter baumannii): 0.109 µM; MIC [16]: 0.435 µM; MIC [17]: 0.0544 µM; MIC (Pseudomonas aeruginosa): 0.218 µM
